Measurements: patent publication US7964598B2 (The J. David Gladstone Institutes, priority 1995, dated 2011)
Where “and” joins values, the source holds several entries; their conditions need not be identical. Equal entries are not always repeated. Entries after “also recorded” stand apart in the source; their conditions may differ.

Experiments:
Water solubility = format: physicochemical
Neuro-2a cells = assay: Aβ-induced apoptosis (DNA fragmentation assay); format: cell-based, mouse
Protocol: DNA Fragmentation Assay—DNA fragmentation of apoptotic cells was determined with Cell Death Detection ELISA kits (Roche, Indianapolis, Ind.).
FIG. 38. […] Control cells were not treated with Aβ1-42. Apoptotic cell death was measured with a DNA fragmentation assay. Values are the mean±S.D. of three separate experiments.
FIGS. 39A and 39B. […] Lysosomal leakage was quantitated by assaying cytosolic 0-hexosaminidase activity. […] Conditioned media were prepared as described above. Apoptosis was quantitated by measuring DNA fragmentation.

B103-neo cells = assay: Cell association and degradation of 125I-Aβ40 by B103-neo cells; format: cell-based, rat; conditions: 125I-Aβ1-40 350 pg/ml with apoE, 24-h incubation
Protocol: Cell Association and Degradation of ^125I-Aβ40 by Neo-transfected B103 Cells. […] Culture medium was collected after 24 h, and the degradation products of ^125I-Aβ40 in the medium were assayed as described. Goldstein et al al. ((1983) Methods Enzymol. 98:241-250). The cells were washed five times on ice with phosphate-buffered saline (PBS) containing 0.2% bovine serum albumin and once with PBS and lysed by 0.1 N NaOH. The cell-associated ^125I-Aβ40 was determined by counting the radioactivity in the cell lysate.
The cell association and degradation of Aβ were measured after a 24-h incubation, as described in Methods, above.

HSPG-deficient CHO cells = assay: Pulse chase of 125I-apoE+β-VLDL, HSPG-deficient CHO cells; format: cell-based, Chinese hamster
Protocol: Cultured cells were grown to ˜100% confluence, placed on ice, and washed twice with cold DMEM-Hepes. The cells were then incubated with ^125I-apoE+β-VLDL at 4° C. for 1 h to allow for cell-surface binding (zero time bound ligand). Cells were rinsed three times with cold F12 medium to remove unbound ligands. Prewarmed F12 medium was added; and the cells were incubated at 37° C. for the times indicated. At each point, the cells were again placed on ice, and the culture medium was collected. To 0.5 ml of medium was added 0.4 ml of 0.2% bovine serum albumin (Sigma) and 0.4 ml of 50% trichloroacetic acid (TCA). The medium was then incubated at 4° C. for 30 min and centrifuged at 3,000 rpm for 10 min. The supernatant was collected for ^125I-apoE degradation assay, and the pellet was counted as TCA-precipitable intact ^125I-apoE. The cells were washed once with cold DMEM-Hepes, incubated with 10 mM suramin on ice in a cold room for 30 min, and then dissolved in 0.1 N NaOH. Cellular radioactivity (internalized apoE) was measured with a gamma counter, and protein concentration was determined by Lowry's method.

B103-APP cells = assay: APP processing and Aβ production, B103-APP cells; format: cell-based, rat; conditions: lipid-free apoE, 7.5 μg/ml, 24 h, compared to medium alone
Protocol: Aβ production assay. Stable neuroblastoma B103 cell lines transfected with a wildtype hAPP cDNA construct (B 103-APP) were selected by growing them in Dulbecco's modified Eagle's medium (DMEM) containing 10% fetal calf serum (FBS) and 400 μg/ml G418. A cell line expressing APP at similar levels in mouse brains has been identified by RNase protection assay (RPA) and was used in the studies described below. To determine Aβ production, B103-APP cells were incubated with serum-free minimal essential medium (MEM) containing N2 supplements with or without apoE isoforms for 24 h at 37° C. After incubation, 50 μl of medium was collected and assayed for Aβ levels with an ELISA method. The cells were lysed, and cellular proteins were determined by the Lowry method. AP production was normalized to cellular protein.
Cell Culture. Rat neuroblastoma B103 cells stably expressing human wildtype APP (hAPP695wt) (Xu et al. ((1999) Proc. Natl. Acad. Sci. USA 96:7547-7552; Esposito, et al. (2004) J. Neurochem. 91:1260-1274) were generated in Dr. Lennart Mucke's laboratory at the Gladstone Institute of Neurological Disease and maintained in Dulbecco's modified Eagle's medium (DMEM) (GIBCO, Grand Island, N.Y.) containing 400 μg/ml G418, 10% fetal bovine serum, and 5% horse serum at 37° C. Twenty-four hours after plating into 48-well plates (1×10^5 cells per well), cells were washed twice with serum-free DMEM and cultured for another 24 h in DMEM containing 1% N-2 supplement (GIBCO) to induce differentiation. The cells were treated with either β-VLDL (25 μg/ml cholesterol), recombinant human apoE isoform-enriched β-VLDL (7.5 μg/ml apoE and 25 μg/ml cholesterol), or recombinant human apoE (7.5 μg/ml apoE) in fresh DMEM containing 1% N-2 supplement for an additional 24 h. In some experiments, RAP (25 nM or 1 μM) was added to the cells 1 h before apoE treatment.
In some experiments, cells were treated with lovastatin, as described but with a minor modification. Fassbender et al. (2001) Proc. Natl. Acad. Sci. USA 98:5856-5861. Briefly, cells were maintained in differentiation medium containing 4 μM lovastatin and 0.25 mM mevalonate for 24 h. After treatment for 5 min with 5 mM methyl-β-cyclodextrin, which depletes cell membrane cholesterol (Bodovitz and Klein (1996) J. Biol. Chem. 271:4436-4440; Kojro et al. (2001) Proc. Natl. Acad. Sci. USA 98:5815-5820), the cells were incubated in fresh differentiation medium containing lovastatin and mevalonate for 24 h. The conditioned medium was collected, and cellular cholesterol extracted with chloroform/methanol (Huang et al. (1994) Proc. Natl. Acad. Sci. USA 91:1834-1838) and quantitated with a kit from Abbott Laboratories (Abbott Park, Ill.).
Detection of sAPPα. Media conditioned for 24 hours were normalized by protein content and subjected to SDS/PAGE. Proteins were then transferred onto nitrocellulose membranes. The sAPPα was detected by mAb 6E10 and visualized with an enhanced chemiluminescence system (Pierce, Rockford, Ill.).
Aβ Assay. Aβ secreted into the medium was detected with a sandwich enzyme-linked immunosorbent assay (ELISA), using mAb 266 as a capturing antibody and 3D6 as a detecting antibody, as described. Johnson-Wood et al. ((1997) Proc. Natl. Acad. Sci. USA 94:1550-1555). Aβ was quantified from a standard curve (Aβ42; Bachem, Torrance, Calif.) and normalized by total cellular protein.

| Compound | water solubility (Water solubility) | apoptosis, cells with medium alone or medium containing apoE3 plus Aβ1-42 (Neuro-2a cells) | apoE4 potentiation of Aβ-induced apoptosis (Neuro-2a cells; apoE4 conditioned medium, Aβ1-42) | Cell association of 125I-Aβ1-40 (B103-neo cells) [fmol/mg cell protein] | Degradation of 125I-Aβ1-40 (B103-neo cells) [fmol/mg cell protein] | bound to the cells (HSPG-deficient CHO cells) | increase of Aβ production (B103-APP cells) |
| --- | --- | --- | --- | --- | --- | --- | --- |
| O=S(=O)([O-])c1ccc2c(c1)c(Nc1ccc(S(=O)(=O)O)cc1)cc1c2nc2ccccc2[n+]1-c1ccccc1 [GIND-25, azocarmine-G] | water-soluble | no significant effect | block; also recorded: abolish |  |  |  |  |
| apoE3: human apolipoprotein E3 isoform, also iodinated |  |  |  | 10.8 ± 2.5 | 88.0 ± 6.7 | 77 ng/mg of cell protein | 30% |
| apoE4: human apolipoprotein E4 isoform, also iodinated |  |  |  | 14.7 ± 2.5 | 80.8 ± 22.9 | 75 ng/mg of cell protein | ~70% and ~60% |
